Test results published in US4927922A, “7β-(substituted)amino-3-substituted cephalosporanic acids and esters” (American Cyanamid Company, priority 1988, dated 1990).
Values after ≈ are worked out from the molar mass of the structure shown. Read-outs that look alike come from different tables or passages of the source.

Experiments:
Assay in all cases: in vitro agar dilution test (MIC)
Format in all cases: cell-based
[1] = tested on: Acinetobacter calcoaceticus MOR 84-43; conditions: MOR8443
Procedure: (§1) The compounds of the present invention are active antibacterial agents as established in the in vitro agar dilution test using Mueller-Hinton agar. The test compounds were dissolved in a mixture of dimethyl sulfoxide and aqueous sodium bicarbonate and applied as 1 ml of drug solution plus 9 ml of agar per plate. The innoculum was a 5 hour TSB shake culture diluted to 10^-2 with Mueller-Hinton broth and applied to the plates with a Steers' Replicator.
(§2) The results of this test on representative compounds of this invention (identified by Example Number) against a variety of microorganisms appear in Tables I and II in terms of minimal inhibitory concentration (MIC) in mcg/ml together with Cefotaxime, Cephalothin and Ampicillin as positive controls.

[2] = tested on: Enterobacter aerogenes VGH 84-36; conditions: Klebsiella aerogenes, VGH8436
Procedure: as §1, §2

[3] = tested on: Enterobacter cloacae K 84-10; conditions: K8410
Procedure: as §1, §2

[4] = tested on: Enterobacter cloacae VGH 84-37; conditions: VGH8437
Procedure: as §1, §2

[5] = tested on: Enterococcus VGH 84-65; conditions: VGH8465
Procedure: as §1, §2

[6] = tested on: Escherichia coli ATCC 25922; conditions: ATCC25922, Mueller-Hinton agar, Table II
Procedure: as §1, §2

[7] = tested on: Escherichia coli CMC 84-11; conditions: CMC8411, Mueller-Hinton agar
Procedure: as §1, §2

[8] = tested on: Escherichia coli CMC 84-16; conditions: CMC8416
Procedure: as §1, §2

[9] = tested on: Escherichia coli No. 311 N.A.; conditions: Mueller-Hinton agar
Procedure: as §1, §2

[10] = tested on: Escherichia coli No. 311(Parent); conditions: Mueller-Hinton agar
Procedure: as §1, §2

[11] = tested on: Klebsiella oxytoca MOR 84-28; conditions: MOR8428
Procedure: as §1, §2

[12] = tested on: Klebsiella pneumoniae AD (MP)
Procedure: as §1, §2

[13] = tested on: Klebsiella pneumoniae MOR 84-4; conditions: MOR844
Procedure: as §1, §2

[14] = tested on: Morganella morganii CMC 84-37; conditions: CMC8437
Procedure: as §1, §2

[15] = tested on: Morganella morganii VGH 84-11; conditions: VGH8411
Procedure: as §1, §2

[16] = tested on: Proteus rettgheri CMC 84-41
Procedure: as §1, §2

[17] = tested on: Pseudomonas aeruginosa 12-4-4 (MP)
Procedure: as §1, §2

[18] = tested on: Pseudomonas aeruginosa VGH 84-4; conditions: VGH844
Procedure: as §1, §2

[19] = tested on: Serratia marcesans F 35 (MP)
Procedure: as §1, §2

[20] = tested on: Serratia marcesans K 84-18; conditions: K8418
Procedure: as §1, §2

[21] = tested on: Staphylococcus aureus ATCC 25923; conditions: ATCC25923
Procedure: as §1, §2

[22] = tested on: Staphylococcus aureus CMC 83-128; conditions: CMC83128
Procedure: as §1, §2

[23] = tested on: Staphylococcus aureus CMC 83-131; conditions: CMC83131
Procedure: as §1, §2

[24] = tested on: Staphylococcus aureus CMC 83-132; conditions: CMC83132
Procedure: as §1, §2

[25] = tested on: Staphylococcus aureus Smith (MP)
Procedure: as §1, §2

[26] = tested on: Staphylococcus epidermidis CMC 83-135; conditions: CMC83135
Procedure: as §1, §2

[27] = tested on: Staphylococcus epidermidis IO 83-58; conditions: IO8358
Procedure: as §1, §2

[28] = tested on: Staphylococcus saprophyticus VGH 84-50; conditions: VGH8450
Procedure: as §1, §2

[29] = Acinetobacter calcoaceticus MOR 84-43, Mueller-Hinton agar, read-out: MIC
[30] = Enterococcus VGH 84-65, Mueller-Hinton agar, read-out: MIC
[31] = Klebsiella oxytoca MOR 84-28, Mueller-Hinton agar, read-out: MIC
[32] = Klebsiella pneumoniae AD (MP), Mueller-Hinton agar, Table II, read-out: MIC
[33] = Klebsiella pneumoniae MOR 84-4, Mueller-Hinton agar, read-out: MIC
[34] = Proteus rettgheri CMC 84-41, Mueller-Hinton agar, read-out: MIC
[35] = Serratia marcesans K 84-18, Mueller-Hinton agar, read-out: MIC
[36] = Staphylococcus aureus ATCC 25923, Mueller-Hinton agar, Table II, read-out: MIC
[37] = Staphylococcus aureus CMC 83-128, Mueller-Hinton agar, read-out: MIC
[38] = Staphylococcus aureus CMC 83-131, Mueller-Hinton agar, read-out: MIC
[39] = Staphylococcus aureus CMC 83-132, Mueller-Hinton agar, read-out: MIC
[40] = Staphylococcus aureus Smith (MP), Mueller-Hinton agar, Table II, read-out: MIC
[41] = Staphylococcus epidermidis CMC 83-135, Mueller-Hinton agar, read-out: MIC
[42] = Staphylococcus epidermidis IO 83-58, Mueller-Hinton agar, read-out: MIC
[43] = Staphylococcus saprophyticus VGH 84-50, Mueller-Hinton agar, read-out: MIC
[44] = Escherichia coli CMC 84-16, Mueller-Hinton agar, read-out: MIC
[45] = Enterobacter aerogenes VGH 84-36, Mueller-Hinton agar, read-out: MIC
[46] = Enterobacter cloacae K 84-10, Mueller-Hinton agar, read-out: MIC
[47] = Enterobacter cloacae VGH 84-37, Mueller-Hinton agar, read-out: MIC
[48] = Morganella morganii CMC 84-37, Mueller-Hinton agar, read-out: MIC
[49] = Morganella morganii VGH 84-11, Mueller-Hinton agar, read-out: MIC
[50] = Pseudomonas aeruginosa 12-4-4 (MP), Mueller-Hinton agar, Table II, read-out: MIC
[51] = Pseudomonas aeruginosa VGH 84-4, Mueller-Hinton agar, read-out: MIC
[52] = Serratia marcesans F 35 (MP), Mueller-Hinton agar, read-out: MIC

CC1(C)S[C@@H]2[C@H](NC(=O)[C@H](N)c3ccccc3)C(=O)N2[C@H]1C(=O)O [Ampicillin, reference compound]
MIC [1, 29]: 32 µg/mL (≈ 91.6 µM) | MIC [2]: 256 µg/mL (≈ 733 µM) | MIC ([3]; Enterobacter cloacae): > 256 µg/mL | MIC ([4]; Enterobacter cloacae): > 256 µg/mL | MIC [5, 30]: 1 µg/mL (≈ 2.86 µM) | MIC [6]: 4 µg/mL (≈ 11.4 µM) | MIC [7]: 4 µg/mL (≈ 11.4 µM) | MIC ([8]; Escherichia coli): > 256 µg/mL | MIC [9]: 2 µg/mL (≈ 5.72 µM) | MIC [10]: 2 µg/mL (≈ 5.72 µM) | MIC [11, 31]: 32 µg/mL (≈ 91.6 µM) | MIC [12, 32]: 0.25 µg/mL (≈ 0.715 µM) | MIC [13, 33]: 32 µg/mL (≈ 91.6 µM) | MIC ([14]; Morganella morganii): 256 µg/mL (≈ 733 µM) | MIC ([15]; Morganella morganii): > 256 µg/mL | MIC [16, 34]: 0.5 µg/mL (≈ 1.43 µM) | MIC ([17]; Pseudomonas aeruginosa): > 256 µg/mL | MIC ([18]; Pseudomonas aeruginosa): > 256 µg/mL | MIC ([19]; Serratia): > 256 µg/mL | MIC [20, 35]: 64 µg/mL (≈ 183 µM) | MIC [21, 36]: ≤ 0.12 µg/mL | MIC [22, 37]: ≤ 0.12 µg/mL | MIC [23, 38]: 2 µg/mL (≈ 5.72 µM) | MIC [24, 39]: 1 µg/mL (≈ 2.86 µM) | MIC [25, 40]: ≤ 0.12 µg/mL | MIC [26, 41]: ≤ 0.12 µg/mL | MIC [27, 42]: 16 µg/mL (≈ 45.8 µM) | MIC [28, 43]: ≤ 0.12 µg/mL

CC(=O)OCC1=C(C(=O)O)N2C(=O)[C@@H](NC(=O)Cc3cccs3)[C@H]2SC1 [Cephalothin, reference compound]
MIC ([1]; Acinetobacter calcoaceticus): > 256 µg/mL | MIC [2]: > 256 µg/mL | MIC ([3]; Enterobacter cloacae): > 256 µg/mL | MIC ([4]; Enterobacter cloacae): > 256 µg/mL | MIC ([5]; Enterococcus): 32 µg/mL (≈ 80.7 µM) | MIC [6]: 16 µg/mL (≈ 40.4 µM) | MIC [7]: 8 µg/mL (≈ 20.2 µM) | MIC [8, 44]: 16 µg/mL (≈ 40.4 µM) | MIC [9]: 8 µg/mL (≈ 20.2 µM) | MIC [10]: 8 µg/mL (≈ 20.2 µM) | MIC ([11]; Klebsiella oxytoca): > 256 µg/mL | MIC ([12]; Klebsiella pneumoniae): 1 µg/mL (≈ 2.52 µM) | MIC ([13]; Klebsiella pneumoniae): 2 µg/mL (≈ 5.04 µM) | MIC ([14]; Morganella morganii): > 256 µg/mL | MIC ([15]; Morganella morganii): > 256 µg/mL | MIC [16]: 4 µg/mL (≈ 10.1 µM) | MIC ([17]; Pseudomonas aeruginosa): > 256 µg/mL | MIC ([18]; Pseudomonas aeruginosa): > 256 µg/mL | MIC ([19]; Serratia): > 256 µg/mL | MIC ([20]; Serratia): > 256 µg/mL | MIC ([21]; Staphylococcus aureus): 0.25 µg/mL (≈ 0.631 µM) | MIC ([22]; Staphylococcus aureus): ≤ 0.12 µg/mL | MIC ([23]; Staphylococcus aureus): 32 µg/mL (≈ 80.7 µM) | MIC ([24]; Staphylococcus aureus): 32 µg/mL (≈ 80.7 µM) | MIC ([25]; Staphylococcus aureus): ≤ 0.12 µg/mL | MIC ([26]; Staphylococcus epidermidis): ≤ 0.12 µg/mL | MIC ([27]; Staphylococcus epidermidis): 0.25 µg/mL (≈ 0.631 µM) | MIC ([28]; Staphylococcus saprophyticus): 0.25 µg/mL (≈ 0.631 µM)

Cc1snnc1SCC1=C(C(=O)O)N2C(=O)[C@@H](NC(=O)Cc3cccs3)[C@H]2SC1 [Example 8, (6R-trans)-3-[[(5-Methyl-1,2,3-thiadiazol-4-yl)thio]methyl]-8-oxo-7-[(2-thienylacetyl)amino]-5-thia-1-azabicyclo[4.2.0]oct-2-ene-2-carboxylic acid]
MIC [1, 29]: > 256 µg/mL | MIC [2, 45]: 256 µg/mL (≈ 546 µM) | MIC [3, 46]: > 256 µg/mL | MIC [4, 47]: > 256 µg/mL | MIC [5, 30]: 32 µg/mL (≈ 68.3 µM) | MIC [6]: 64 µg/mL (≈ 137 µM) | MIC [7]: 64 µg/mL (≈ 137 µM) | MIC [8, 44]: 64 µg/mL (≈ 137 µM) | MIC [9]: 32 µg/mL (≈ 68.3 µM) | MIC [10]: 32 µg/mL (≈ 68.3 µM) | MIC [11, 31]: 256 µg/mL (≈ 546 µM) | MIC [12, 32]: 8 µg/mL (≈ 17.1 µM) | MIC [13, 33]: 32 µg/mL (≈ 68.3 µM) | MIC [14, 48]: > 256 µg/mL | MIC [15, 49]: > 256 µg/mL | MIC [16, 34]: 2 µg/mL (≈ 4.27 µM) | MIC [17, 50]: > 256 µg/mL | MIC [18, 51]: > 256 µg/mL | MIC [19, 52]: > 256 µg/mL | MIC [20, 35]: > 256 µg/mL | MIC [21, 36]: 0.5 µg/mL (≈ 1.07 µM) | MIC [22, 37]: 1 µg/mL (≈ 2.13 µM) | MIC [23, 38]: 32 µg/mL (≈ 68.3 µM) | MIC [24, 39]: 32 µg/mL (≈ 68.3 µM) | MIC [25, 40]: ≤ 0.12 µg/mL | MIC [26, 41]: ≤ 0.12 µg/mL | MIC [27, 42]: 2 µg/mL (≈ 4.27 µM) | MIC [28, 43]: 1 µg/mL (≈ 2.13 µM)

CCc1snnc1SCC1=C(C(=O)O)N2C(=O)[C@@H](NC(=O)Cc3cccs3)[C@H]2SC1 [Example 10, (6R-trans)-3-[[(5-Ethyl-1,2,3-thiadiazol-4-yl)thio]methyl]-8-oxo-7-[(2-thienylacetyl)amino]-5-thia-1-azabicyclo[4.2.0]oct-2-ene-2-carboxylic acid]
MIC [1, 29]: > 256 µg/mL | MIC [2, 45]: > 256 µg/mL | MIC [3, 46]: > 256 µg/mL | MIC [4, 47]: > 256 µg/mL | MIC [5, 30]: 32 µg/mL (≈ 66.3 µM) | MIC [6]: 64 µg/mL (≈ 133 µM) | MIC [7]: 128 µg/mL (≈ 265 µM) | MIC [8, 44]: 128 µg/mL (≈ 265 µM) | MIC [9]: 64 µg/mL (≈ 133 µM) | MIC [10]: 64 µg/mL (≈ 133 µM) | MIC [11, 31]: 128 µg/mL (≈ 265 µM) | MIC [12, 32]: 16 µg/mL (≈ 33.2 µM) | MIC [13, 33]: 64 µg/mL (≈ 133 µM) | MIC [14, 48]: > 256 µg/mL | MIC [15, 49]: > 256 µg/mL | MIC [16, 34]: 4 µg/mL (≈ 8.29 µM) | MIC [17, 50]: > 256 µg/mL | MIC [18, 51]: > 256 µg/mL | MIC [19, 52]: > 256 µg/mL | MIC [20, 35]: > 256 µg/mL | MIC [21, 36]: 0.5 µg/mL (≈ 1.04 µM) | MIC [22, 37]: 1 µg/mL (≈ 2.07 µM) | MIC [23, 38]: 32 µg/mL (≈ 66.3 µM) | MIC [24, 39]: 32 µg/mL (≈ 66.3 µM) | MIC [25, 40]: ≤ 0.12 µg/mL | MIC [26, 41]: ≤ 0.12 µg/mL | MIC [27, 42]: 2 µg/mL (≈ 4.14 µM) | MIC [28, 43]: 1 µg/mL (≈ 2.07 µM)
